Measurements taken from US20240002846A1, “COMPOSITIONS AND METHODS FOR THE DIAGNOSIS AND TREATMENT OF ITCH” (Duke University, priority 2020, published 2024).
Entries after “also recorded” stand apart in the source; their conditions may differ.

Tests used:
pERK expression = experiment: pERK Western blot in cultured human keratinocytes; type: cell-based; conditions: inhibitor 10 μM
Experimental: Primary human keratinocytes were cultured as previously described (Chen et al. J. Biol. Chem. 2016, 291, 10252-10262). In brief, surgically discarded foreskin samples, obtained from Duke Children's Hospital in accordance to institutionally approved IRB protocol, were incubated with Dispase (Gibco, Gaithersburg, MD, 4 U/mL) for 12-16 h at 4° C. followed by 0.05% trypsin (Gibco, Gaithersburg, MD) for 10-20 min at 37° C. Cells were maintained in keratinocyte serum-free media (Invitrogen, Waltham, MA) with 5% CO2 at 37° C. and used at passage 2-3.
Western Blot. Routine procedures were followed (Chen et al. J. Biol. Chem. 2016, 291, 10252-10262, Chen et al. Pain 2014, 155, 2662-2672). Briefly, cultured keratinocytes and dissected dorsal neck skin (0.5×0.5 cm, the area that received the treatment) were protein-extracted in radioimmunoprecipitation assay (RIPA, Sigma, St. Louis, MO) buffer and electroblotted to polyvinylidene fluoride (PVDF) membranes after gel separation of proteins in a 4-15% polyacrylamide gel (Bio-Rad, Hercules, CA). […] Immunoblot band intensity was quantitated using the software Image J and ERK served as a control for pERK expression.

hTRPV4 = target: T1, hTRPV4 (Homo sapiens, UniProt Q9HBA0); experiment: Inside-out patch-clamp, hTRPV4; type: biochemical; conditions: 5 μM LPC 18:1; WT-hTRPV4
T1 construct: expressed in transfected cells; host or cells: HEK293 (ATCC CRL-1573)
Experimental: Cell culture and transfection. HEK293 cells (ATCC® CRL-1573) were cultured on poly-D-lysine coated coverslips in 24-well plate containing DMEM media with high-Glucose (Gibco, Gaithersburg, MD) supplemented with 10% fetal bovine serum (FBS, HyClone Laboratories, Logan, UT) and 100 U/mL of penicillin/streptomycin (Gibco, Gaithersburg, MD). Cell cultures were maintained with 5% of CO2 in a humidified incubator at 37° C. HEK cells were transfected with rat or human wild type or mutant TRPV4 channels with EGFP or YFP coupled to their C-termini (1.5 μg of plasmid for excised patch clamp and Ca^2+ imaging and 200 ng for single-channel experiments). […]
Electrophysiology. Currents were recorded using the inside-out configuration of the patch-clamp technique (Hamill et al. Pflugers Arch. 1981, 391, 85-100). […] Mean current values in response to GSK1016790A or LPC 18:1 were measured after channel activation had reached the steady-state (˜3 min). […] Currents were low-pass filtered at 2 kHz and sampled at 10 kHz with an EPC 10 amplifier (HEKA Elektronik) and were plotted and analyzed with Igor Pro (Wavemetrics Inc.).

rTRPV4 = rTRPV4 (Rattus norvegicus, UniProt Q9ERZ8); experiment: In vitro interaction (overlay) assay LPC-TRPV4; type: binding; parameters: made in house; host or cells: HEK293 cells, surface proteins isolated with Pierce Cell Surface Isolation kit; conditions: 200 pmol per spot
Experimental: In vitro interaction assays of LPC-TRPV4. Surface proteins were obtained from HEK293 cells transiently expressing rTRPV4-EGFP channels using the Pierce Cell Surface Isolation kit (Pierce Biotechnology, Rockford, IL) following the manufacturer's instructions. Overlay assays were performed as previously described (Morales-Lazaro et al. Nat. Commun. 2016, 7, 13092). In brief, LPC 18:1 was spotted (200 pmol per spot) onto a nitrocellulose membrane (GE Healthcare, Pittsburgh, PA) and then blocked with 1% fatty acid-free BSA (Calbiochem) and 6% fat-free dried milk in PBS. Membranes were then incubated with the surface protein solutions and exposed to anti-GFP antibody (Sigma, St. Louis, MO) diluted 1:1000 in 3% fat-free dried milk in PBST (with 0.1% of Tween). Membranes were incubated with horseradish peroxidase-conjugated secondary anti-rabbit antibody (Cell Signaling Technology) diluted 1:7500 in 6% fat-free dried milk in PBST. The binding of rTRPV4-EGFP and TRPV4-R746D-EGFP to the lipid-containing spots was visualized by chemiluminescence by exposing the blot for 15 min (Amersham Bioscience, Piscataway, NJ). Semi-quantitative densitometric analysis was done using ImageJ (NIH) and expressed as relative protein levels of TRPV4 bound to each spot.

T1 sequence (Q9HBA0 whole entry): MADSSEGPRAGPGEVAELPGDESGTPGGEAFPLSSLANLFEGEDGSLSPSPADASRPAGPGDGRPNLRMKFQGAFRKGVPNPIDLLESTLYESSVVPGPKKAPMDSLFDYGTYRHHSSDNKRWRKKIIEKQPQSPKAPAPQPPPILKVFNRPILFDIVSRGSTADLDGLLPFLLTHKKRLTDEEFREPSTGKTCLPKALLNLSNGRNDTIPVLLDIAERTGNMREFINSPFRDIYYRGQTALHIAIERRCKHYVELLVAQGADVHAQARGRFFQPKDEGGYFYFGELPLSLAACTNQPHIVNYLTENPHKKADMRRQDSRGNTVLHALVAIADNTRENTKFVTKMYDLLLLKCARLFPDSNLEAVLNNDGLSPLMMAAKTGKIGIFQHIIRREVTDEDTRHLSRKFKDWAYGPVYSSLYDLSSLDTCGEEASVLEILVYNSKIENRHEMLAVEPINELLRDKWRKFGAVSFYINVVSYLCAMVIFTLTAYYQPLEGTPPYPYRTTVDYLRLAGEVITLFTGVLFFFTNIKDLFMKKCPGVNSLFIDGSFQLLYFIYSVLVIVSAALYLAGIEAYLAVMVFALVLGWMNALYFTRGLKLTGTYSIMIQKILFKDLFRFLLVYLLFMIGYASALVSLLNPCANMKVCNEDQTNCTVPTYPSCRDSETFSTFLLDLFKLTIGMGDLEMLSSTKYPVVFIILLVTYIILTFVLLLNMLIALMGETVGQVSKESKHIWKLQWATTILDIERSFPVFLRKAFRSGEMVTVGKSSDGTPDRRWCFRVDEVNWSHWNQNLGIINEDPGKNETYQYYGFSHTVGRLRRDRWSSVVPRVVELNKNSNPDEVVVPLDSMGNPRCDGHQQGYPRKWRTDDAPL
Sequence of rTRPV4 (Q9ERZ8 whole entry): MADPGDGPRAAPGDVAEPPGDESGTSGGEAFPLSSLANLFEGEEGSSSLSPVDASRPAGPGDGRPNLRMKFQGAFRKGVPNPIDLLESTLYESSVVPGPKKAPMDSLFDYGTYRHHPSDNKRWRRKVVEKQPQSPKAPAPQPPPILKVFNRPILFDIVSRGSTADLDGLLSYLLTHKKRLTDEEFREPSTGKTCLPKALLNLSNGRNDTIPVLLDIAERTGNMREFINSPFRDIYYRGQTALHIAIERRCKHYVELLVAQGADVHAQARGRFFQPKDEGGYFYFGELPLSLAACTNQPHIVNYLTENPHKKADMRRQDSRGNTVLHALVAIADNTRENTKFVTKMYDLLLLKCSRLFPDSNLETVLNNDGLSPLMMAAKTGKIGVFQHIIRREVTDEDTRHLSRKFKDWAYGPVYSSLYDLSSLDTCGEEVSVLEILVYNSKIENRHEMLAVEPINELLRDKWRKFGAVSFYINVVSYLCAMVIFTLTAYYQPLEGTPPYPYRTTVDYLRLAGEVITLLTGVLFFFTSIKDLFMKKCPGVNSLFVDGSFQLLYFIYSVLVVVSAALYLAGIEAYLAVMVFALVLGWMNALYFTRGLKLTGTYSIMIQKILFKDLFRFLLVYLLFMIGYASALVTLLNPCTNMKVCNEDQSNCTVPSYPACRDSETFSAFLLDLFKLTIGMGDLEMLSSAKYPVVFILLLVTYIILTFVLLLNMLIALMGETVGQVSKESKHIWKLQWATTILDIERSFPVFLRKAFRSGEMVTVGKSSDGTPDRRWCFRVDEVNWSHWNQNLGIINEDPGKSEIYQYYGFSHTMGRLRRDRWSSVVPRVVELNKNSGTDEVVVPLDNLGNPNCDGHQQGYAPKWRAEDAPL

For `Cc1c(C(=O)Nc2cccc(C(F)(F)F)c2)cc(-c2ccccc2)n1CCCN1CCOCC1` [HC067047], the “effect on LPC-increased pERK expression” value (pERK expression) was “eliminated the increase; also recorded: abolished”.
LPC 18:1 was tested, and the “average activation of currents, normalized to 1 μM GSK101” value (hTRPV4) was 48±6% and the “binding of LPC 18:1 to rTRPV4” value (rTRPV4) was “demonstrated binding”.
